Experimental findings from patent publication US20170210723A1, “MOLECULES HAVING PESTICIDAL UTILITY, AND INTERMEDIATES, COMPOSITIONS, AND PROCESSES, RELATED THERETO” (priority 2016, published 2017) are described below.

Assay type in all cases: in vivo
Series [1] has as its system Beet Armyworm (Spodoptera exigua). The experiment in a line: Bioassays on BAW, 128-well diet tray assay. To be noted: Spodoptera exigua; for mortality at 50 µg/cm2: 168 h, 50 μg/cm^2 on artificial diet, second instar larvae, five to seven days, read-out: BAW % Control (or Mortality) rating.
The subject of series [2] is Cabbage Looper (Trichoplusia ni). The experiment in a line: Bioassays on CL, 128-well diet tray assay. To be noted: Trichoplusia ni; for mortality at 50 µg/cm2: 168 h, 50 μg/cm^2 on artificial diet, second instar larvae, five to seven days, read-out: CL % Control (or Mortality) rating. In outline:
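Test molecule at 50 μg/cm^2 applied to the artificial diet surface (acetone-water) and dried; one to five second-instar T. ni larvae per well, eight wells per treatment, held at 25° C., 14:10 light-dark for five to seven days. Percent mortality averaged over wells.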

Series [3] relates to Yellow Fever Mosquito (Aedes aegypti). The experiment in a line: Bioassays on Yellow Fever Mosquito larvae, 96-well plate. To be noted: from 4000 ppm DMSO master plate, about 1 day-old larvae, 3 days. The protocol: Master plates containing 400 μg of a molecule dissolved in 100 μL of dimethyl sulfoxide (DMSO) (equivalent to a 4000 ppm solution) are used. A master plate of assembled molecules contains 15 μL per well. To this plate, 135 μL of a 90:10 water:acetone mixture is added to each well. A robot (Biomek® NXP Laboratory Automation Workstation) is programmed to dispense 15 μL aspirations from the master plate into an empty 96-well shallow plate (“daughter” plate). There are 6 reps (“daughter” plates) created per master. The created daughter plates are then immediately infested with YFM larvae.
The day before plates are to be treated, mosquito eggs are placed in Millipore water containing liver powder to begin hatching (4 g. into 400 mL). After the daughter plates are created using the robot, they are infested with 220 μL of the liver powder/larval mosquito mixture (about 1 day-old larvae). After plates are infested with mosquito larvae, a non-evaporative lid is used to cover the plate to reduce drying. Plates are held at room temperature for 3 days prior to grading. After 3 days, each well is observed and scored based on mortality. The results are indicated in the table entitled “Table ABC: Biological Results” (See Table Section). AGRICULTURALLY ACCEPTABLE ACID ADDITION SALTS, SALT DERIVATIVES, SOLVATES, ESTER DERIVATIVES, POLYMORPHS, ISOTOPES, AND RADIONUCLIDES

The term mortality denotes the percentage killed.

As for `CSCC[C@@H](NC(=O)c1ccc(/C=C/C(c2cc(Cl)c(Cl)c(Cl)c2)C(F)(F)F)cc1C(F)(F)F)C(=O)NCC(F)(F)F` (stereo partly drawn) [F28, N—((R)-4-(Methylthio)-1-oxo-1-((2,2,2-trifluoroethyl)amino)butan-2-yl)-4-((E)-4,4,4-trifluoro-3-(3,4,5-trichlorophenyl)but-1-en-1-yl)-2-(trifluoromethyl)benzamide], the mortality at 50 µg/cm2 in series [1] and in series [2] was 50 to 100% in each case. Also, the “YFM % Control (or Mortality) rating” value in series [3] was “A (80-100)”.
For `C[C@H](CSCC(F)(F)F)NC(=O)c1ccc(/C=C/C(c2cc(Cl)c(F)c(Cl)c2)C(F)(F)F)cc1Br` (stereo partly drawn) [F34, 2-Bromo-4-((E)-3-(3,5-dichloro-4-fluorophenyl)-4,4,4-trifluorobut-1-en-1-yl)-N—((R)-1-((2,2,2-trifluoroethyl)thio)propan-2-yl)benzamide], the mortality at 50 µg/cm2 in series [1] and in series [2] was 50 to 100% in each case. For the same molecule, the “YFM % Control (or Mortality) rating” value in series [3] was “A (80-100)”.
With `C[C@H](CS(=O)(=O)CC(F)(F)F)NC(=O)c1ccc(/C=C/C(c2cc(Cl)c(F)c(Cl)c2)C(F)(F)F)cc1C(F)(F)F` (stereo partly drawn) [F36, 4-((E)-3-(3,5-Dichloro-4-fluorophenyl)-4,4,4-trifluorobut-1-en-1-yl)-N—((R)-1-((2,2,2-trifluoroethyl)sulfonyl)propan-2-yl)-2-(trifluoromethyl)benzamide], the mortality at 50 µg/cm2 in series [1] and in series [2] was 50 to 100% throughout. Besides, in series [3], the “YFM % Control (or Mortality) rating” value is “A (80-100)”.
Turning to `C[C@H](C[S+]([O-])CC(F)(F)F)NC(=O)c1ccc(/C=C/C(c2cc(Cl)c(F)c(Cl)c2)C(F)(F)F)cc1C(F)(F)F` (stereo partly drawn) [F37], the mortality at 50 µg/cm2 in series [1] and in series [2] was 50 to 100% in each case. Also, the “YFM % Control (or Mortality) rating” value in series [3] is given as “A (80-100)”.
With `C[C@H](C[S+]([O-])CC(F)(F)F)NC(=O)c1ccc(/C=C/C(c2cc(Cl)c(Cl)c(Cl)c2)C(F)(F)F)cc1Br` (stereo partly drawn) [F39, 2-Bromo-4-((E)-4,4,4-trifluoro-3-(3,4,5-trichlorophenyl)but-1-en-1-yl)-N-((2R)-1-((2,2,2-trifluoroethyl)sulfinyl)propan-2-yl)benzamide], the mortality at 50 µg/cm2 in series [1] and in series [2] was 50 to 100% in each case. The “YFM % Control (or Mortality) rating” value in series [3] is “A (80-100)”.
As to `Cc1cc(/C=C/C(c2cc(Cl)c(Cl)c(Cl)c2)C(F)(F)F)ccc1C(=O)N[C@H](C)CS(=O)(=O)CC(F)(F)F` (stereo partly drawn) [F40, 2-Methyl-4-((E)-4,4,4-trifluoro-3-(3,4,5-trichlorophenyl)but-1-en-1-yl)-N—((R)-1-((2,2,2-trifluoroethyl)sulfonyl)propan-2-yl)benzamide], the mortality at 50 µg/cm2 in series [1] and in series [2] was 50 to 100% throughout. Besides, the mortality at 0.05 µg/cm2 in series [1] (0.05 μg/cm^2, read-out: BAW Percent control (or mortality)) came to 60%; in series [2] (0.05 μg/cm^2, read-out: CL Percent control (or mortality)), 100%. For the same molecule, the mortality at 0.5 µg/cm2 in series [1] (0.5 μg/cm^2, read-out: BAW Percent control (or mortality)) amounted to 100%; in series [2] (0.5 μg/cm^2, read-out: CL Percent control (or mortality)) it was 100%. In addition, the mortality at 5 µg/cm2 in series [1] (5 μg/cm^2, read-out: BAW Percent control (or mortality)) is 100%; in series [2] (5 μg/cm^2, read-out: CL Percent control (or mortality)) it was 100%. Also, the “YFM % Control (or Mortality) rating” value in series [3] was “A (80-100)”.
`C[C@H](CSCC(F)(F)F)NC(=O)c1ccc(/C=C/C(c2cc(Br)c(Cl)c(Br)c2)C(F)(F)F)cc1C(F)(F)F` (stereo partly drawn) [F41, 4-((E)-3-(3,5-Dibromo-4-chlorophenyl)-4,4,4-trifluorobut-1-en-1-yl)-N—((R)-1-((2,2,2-trifluoroethyl)thio)propan-2-yl)-2-(trifluoromethyl)benzamide]: the mortality at 50 µg/cm2 in series [1] and in series [2] was 50 to 100% throughout. Moreover, the “YFM % Control (or Mortality) rating” value in series [3] is reported as “A (80-100)”.
Turning to `C[C@H](C[S+]([O-])CC(F)(F)F)NC(=O)c1ccc(/C=C/C(c2cc(Br)c(Cl)c(Br)c2)C(F)(F)F)cc1C(F)(F)F` (stereo partly drawn) [F42, 4-((E)-3-(3,5-Dibromo-4-chlorophenyl)-4,4,4-trifluorobut-1-en-1-yl)-N-((2R)-1-((2,2,2-trifluoroethyl)sulfinyl)propan-2-yl)-2-(trifluoromethyl)benzamide], the mortality at 50 µg/cm2 in series [1] and in series [2] was 50 to 100% in each case. The “YFM % Control (or Mortality) rating” value in series [3] is reported as “A (80-100)”.
In the case of `CC(C)(CSCC(F)(F)F)NC(=O)c1ccc(/C=C/C(c2cc(Cl)c(Cl)c(Cl)c2)C(F)(F)F)cc1C(F)(F)F` (stereo not drawn) [F44, (E)-N-(2-methyl-1-((2,2,2-trifluoroethyl)thio)propan-2-yl)-4-(4,4,4-trifluoro-3-(3,4,5-trichlorophenyl)but-1-en-1-yl)-2-(trifluoromethyl)benzamide], the mortality at 50 µg/cm2 in series [1] and in series [2] was 50 to 100% throughout. Further, the “YFM % Control (or Mortality) rating” value in series [3] is reported as “A (80-100)”.
Take `C[C@H](CS(=O)(=O)NCC(F)(F)F)NC(=O)c1ccc(/C=C/C(c2cc(Cl)c(Cl)c(Cl)c2)C(F)(F)F)cc1C(F)(F)F` (stereo partly drawn) [F45, 4-((E)-4,4,4-Trifluoro-3-(3,4,5-trichorophenyl)but-1-en-1-yl)-N—((R)-1-(N-(2,2,2-trifluoroethyl)sulfamoyl)propan-2-yl)-2-(trifluoromethyl)benzamide]: the mortality at 50 µg/cm2 in series [1] and in series [2] was 50 to 100% each time. For the same molecule, the “YFM % Control (or Mortality) rating” value in series [3] was “A (80-100)”.
With `Cc1cc(/C=C/C(c2cc(Cl)c(Cl)c(Cl)c2)C(F)(F)F)ccc1C(=O)N[C@H](C)C[S+]([O-])CC(F)(F)F` (stereo partly drawn) [F46, 2-Methyl-4-((E)-4,4,4-trifluoro-3-(3,4,5-trichlorophenyl)but-1-en-1-yl)-N-((2R)-1-((2,2,2-trifluoroethyl)sulfinyl)propan-2-yl)benzamide], the mortality at 50 µg/cm2 in series [1] and in series [2] was 50 to 100% each time. For the same molecule, in series [3], the “YFM % Control (or Mortality) rating” value is recorded as “A (80-100)”.
Regarding `CC(C)(CS(=O)(=O)CC(F)(F)F)NC(=O)c1ccc(/C=C/C(c2cc(Cl)c(Cl)c(Cl)c2)C(F)(F)F)cc1C(F)(F)F` (stereo not drawn) [F48, (E)-N-(2-Methyl-1-((2,2,2-trifluoroethyl)sulfonyl)propan-2-yl)-4-(4,4,4-trifluoro-3-(3,4,5-trichlorophenyl)but-1-en-1-yl)-2-(trifluoromethyl)benzamide], the mortality at 50 µg/cm2 in series [1] and in series [2] was 50 to 100% each time. In addition, the “YFM % Control (or Mortality) rating” value in series [3] is “A (80-100)”.
Take `C[C@H](C[S+]([O-])CC(F)(F)F)NC(=O)c1ccc(/C=C/C(c2cc(Cl)c(Cl)c(Cl)c2)C(F)(F)F)cc1Cl` (stereo partly drawn) [F50, 2-Chloro-4-((E)-4,4,4-trifluoro-3-(3,4,5-trichlorophenyl)but-1-en-1-yl)-N-((2R)-1-((2,2,2-trifluoroethyl)sulfinyl)propan-2-yl)benzamide]: the mortality at 50 µg/cm2 in series [1] and in series [2] was 50 to 100% in each case. Besides, the “YFM % Control (or Mortality) rating” value in series [3] is listed as “A (80-100)”.
As for `Cc1cc(/C=C/C(c2cc(Cl)c(Cl)c(Cl)c2)C(F)(F)F)ccc1C(=O)N[C@H](C)CSCC(F)(F)F` (stereo partly drawn) [F51, 2-Methyl-4-((E)-4,4,4-trifluoro-3-(3,4,5-trichlorophenyl)but-1-en-1-yl)-N—((R)-1-((2,2,2-trifluoroethyl)thio)propan-2-yl)benzamide], the mortality at 50 µg/cm2 in series [1] and in series [2] was 50 to 100% in each case. Moreover, the “YFM % Control (or Mortality) rating” value in series [3] was “A (80-100)”.
For `C[C@H](CS(=O)(=O)CC(F)(F)F)NC(=O)c1ccc(/C=C/C(c2cc(Cl)c(F)c(Cl)c2)C(F)(F)F)cc1Br` (stereo partly drawn) [F52, 2-Bromo-4-((E)-3-(3,5-dichloro-4-fluorophenyl)-4,4,4-trifluorobut-1-en-1-yl)-N—((R)-1-((2,2,2-trifluoroethyl)sulfonyl)propan-2-yl)benzamide], the mortality at 50 µg/cm2 in series [1] and in series [2] was 50 to 100% throughout. For the same molecule, the “YFM % Control (or Mortality) rating” value in series [3] is listed as “A (80-100)”.
On to `C[C@H](C[S+]([O-])CC(F)(F)F)NC(=O)c1ccc(/C=C/C(c2cc(Cl)c(C#N)c(Cl)c2)C(F)(F)F)cc1C(F)(F)F` (stereo partly drawn) [F53, 4-((E)-3-(3,5-Dichloro-4-cyanophenyl)-4,4,4-trifluorobut-1-en-1-yl)-N-((2R)-1-((2,2,2-trifluoroethyl)sulfinyl)propan-2-yl)-2-(trifluoromethyl)benzamide], for which the mortality at 50 µg/cm2 in series [1] and in series [2] was 50 to 100% throughout. In addition, the “YFM % Control (or Mortality) rating” value in series [3] is “A (80-100)”.
